SMILES strings stand for the structures. A value given as a limit tells only on which side of the number the result lay.

The values below come from patent publication US9221835B2, “Spirocyclic derivatives as antiparasitic agents” (Zoetis Services LLC, priority 2012, dated 2015).

Holding throughout (format): in vivo
For assay [1], the system named is Mosquito (Aedes aeqypti) larvae. Kind of assay: Mosquito (Aedes aeqypti) Larval Assay. The following applies: first instar larvae, 25° C., 24 hours, lowest dose to inhibit motility ≧50% of untreated controls, half-log intervals, read-out: Minimum Effective Concentration (MEC). The method, then:
Mosquito (Aedes aeqypti) Larval Assay
Compounds were dissolved in DMSO and aliquots were spotted to empty wells. First instar mosquito larvae and maintenance media were added to the wells to obtain between 8 and 15 larvae per well in the appropriate final assay volume. Larvae were incubated in the treated media at 25° C. for 24 hours. Mosquito larvae motility was measured at 24 hours. Each compound was tested at half-log intervals, and endpoint results were recorded as Minimum Effective Concentration (MEC) in μM. MEC is an objective assessment of organism motility, and is the lowest dose to inhibit motility ≧50% of untreated controls.

Assay [2] concerns Soft Tick (Ornithidorus turicata). Put plainly: Soft Tick (Ornithidorus turicata) Blood Feed Assay. The settings on record: nymph stage ticks fed on treated citrated bovine blood; paralysis and/or death observed at approximately 24, 48 and 72 hours. As to the method: Soft Tick (Ornithidorus turicata) Blood Feed Assay
Compounds of the present invention were dissolved in dimethylsulfoxide (DMSO) and aliquots added to citrated bovine blood in a membrane covered Petri dish. The Petri dish is placed on a warming tray. Approximately 5 nymph stage ticks are placed onto the membrane, covered, and left to feed. Fed ticks are removed and placed into a Petri dish with sand. […] Endpoint data was recorded as a 100% lethal dose (LD^100) in μg/mL.

The test system of assay [3] is Flea (Ctenocephalides felis). Kind of assay: Flea (Ctenocephalides felis) Membrane Feed Assay-Adult. The following applies: adult fleas fed on treated citrated bovine blood for 24 hours, lowest dose to cause mortality ≧50%, half-log intervals, read-out: Minimum Effective Concentration (MEC). As to the method:
Flea (Ctenocephalides felis) Membrane Feed Assay-Adult
Compounds were dissolved in DMSO and aliquots were added to citrated bovine blood in membrane covered wells warmed to 37° C. Adult fleas were newly emerged (3-7 days) and unfed. Feeding wells containing approximately 10 adult fleas were placed onto the treated blood wells, and the fleas were allowed to feed on the treated blood for 24 hours. […] Each compound was tested at half-log intervals, and endpoint data was recorded as Minimum Effective Concentration in μM. MEC is a subjective visual assessment of organism viability, and is the lowest dose to cause mortality ≧50%.

Take `CS(=O)(=O)CC(=O)N1CC2(C1)OCc1cc(C3=NNC(c4cc(Cl)c(F)c(Cl)c4)(C(F)(F)F)C3)ccc12` (centres unmarked) [Example 13, 1-(5′-(5-(3,5-dichloro-4-fluorophenyl)-5-(trifluoromethyl)-4,5-dihydro-1H-pyrazol-3-yl)-3′H-spiro[azetidine-3,1′-isobenzofuran]-1-yl)-2-(methylsulfonyl)ethanone]: the minimal effective concentration in assay [1] is 0.1 µM; in assay [3] it was at least 3 µM. For the same compound, the “100% lethal dose (LD100)” value in assay [2] came to 0.03 µg/mL.

Take `CC(C)C(=O)N1CC2(C1)OCc1cc(C3=NOC(c4cc(Cl)c(F)c(Cl)c4)(C(F)(F)F)O3)ccc12` (centres unmarked) [Example 28, 1-(5′-(5-(3,5-dichloro-4-fluorophenyl)-5-(trifluoromethyl)-1,4,2-dioxazol-3-yl)-3′H-spiro[azetidine-3,1′-isobenzofuran]-1-yl)-2-methyl propan-1-one]: the minimal effective concentration in assay [1] is 0.3 µM; in assay [3], at least 3 µM. In assay [2], the “100% lethal dose (LD100)” value stood at 0.1 µg/mL.

With `CC(C)C(=O)N1CC2(C1)OCc1cc(C3=NCC(c4cc(Cl)cc(Cl)c4)(C(F)(F)F)C3)ccc12` (centres unmarked) [Example 6, 5′-(3-(3,5-dichlorophenyl)-3-(trifluoromethyl)-3,4-dihydro-2H-pyrrol-5-yl]-1-isobutyryl-3′H-spiro[azetidine-3,1′-[2]benzofuran]], the minimal effective concentration was 0.1 µM in assay [1] and 1 µM in assay [3]. Besides, the “100% lethal dose (LD100)” value in assay [2] came out at 0.03 µg/mL.

Take `CC(C)C(=O)N1CC2(C1)OCc1cc(C3=NOC(c4cc(Cl)c(Cl)c(Cl)c4)(C(F)(F)F)O3)ccc12` (centres unmarked) [Example 31]: the minimal effective concentration in assay [1] is 0.3 µM; in assay [3], at least 3 µM. Further, the “100% lethal dose (LD100)” value in assay [2] stood at 0.3 µg/mL.

Take `CS(=O)(=O)CC(=O)N1CC2(C1)OCc1cc(N3CCC(c4cc(Cl)c(Cl)c(Cl)c4)(C(F)(F)F)C3)ccc12` (centres unmarked) [Example 26, 5′-[3-(3,4,5-trichloro)-3-(trifluoromethyl)pyrrolidin-1-yl]-1-[(methylsulfonyl)acetyl]-3′H-spiro[azetidine-3,1′-[2]benzofuran]]: the figures for the minimal effective concentration in assay [1] and in assay [3] were over 3 µM and at least 3 µM, respectively. Further, in assay [2], the “100% lethal dose (LD100)” value stood at 0.1 µg/mL.

In the case of `CC(C)C(=O)N1CC2(C1)OCc1cc(C3=NN(C)C(c4cc(Cl)c(F)c(Cl)c4)(C(F)(F)F)C3)ccc12` (centres unmarked) [Example 16, 1-(5′-(5-(3,5-dichloro-4-fluorophenyl)-1-methyl-5-(trifluoromethyl)-4,5-dihydro-1H-pyrazol-3-yl)-3′H-spiro[azetidine-3,1′-isobenzofuran]-1-yl)-2-methylpropan-1-one], in assay [2], the “100% lethal dose (LD100)” value worked out at 0.03 µg/mL. Moreover, in assay [3], the minimal effective concentration stood at 1 µM.

Consider `CS(=O)(=O)CC(=O)N1CC2(C1)OCc1cc(N3CCC(c4cc(Cl)c(F)c(Cl)c4)(C(F)(F)F)C3)ccc12` (centres unmarked) [Example 22, 1-(5-(3-(3,5-dichloro-4-fluorophenyl)-3-(trifluoromethyl)pyrrolidin-1-yl)-3′H-spiro[azetidine-3,1′-isobenzofuran]-1-yl)-2-(methylsulfonyl)ethanone], for which the values for the minimal effective concentration in assay [1] and in assay [3] were over 3 µM and at least 3 µM, respectively. In addition, the “100% lethal dose (LD100)” value in assay [2] worked out at 0.03 µg/mL.

As for `CS(=O)(=O)CC(=O)N1CC2(C1)OCc1cc(C3=NCC(c4cc(Cl)c(Cl)c(Cl)c4)(C(F)(F)F)C3)ccc12` (centres unmarked) [Example 1, 2-(methylsulfonyl)-1-(5′-(3-(3,4,5-trichlorophenyl)-3-(trifluoromethyl)-3,4-dihydro-2H-pyrrol-5-yl)-3′H-spiro[azetidine-3,1′-isobenzofuran]-1-yl)ethanone], the minimal effective concentration in assay [1] amounted to 0.1 µM; in assay [3], 0.3 µM. Further, the “100% lethal dose (LD100)” value in assay [2] amounted to 0.03 µg/mL.
